Measured values: PMC314469, “Protein Interaction Networks by Proteome Peptide Scanning” (PLoS Biology, 2004)

System: Myo5 SH3 domain
Assay: SPOT analysis of cellulose-bound peptides (WISE), Myo5 SH3 domain (Dataset S4)
Format: binding, Saccharomyces cerevisiae
Conditions: for The normalized value in BLU units: Myo5 SH3 domain
[1] = SPOT analysis of membrane-bound peptides, normalized value (see methods)
[2] = SPOT analysis of membrane-synthesized peptides probed with Myo5 SH3 domain, normalized value
[3] = SPOT analysis of cellulose-bound 14-mer yeast proteome peptides, normalized value, mean where the peptide was synthesized more than once
[4] = SPOT analysis of cellulose-bound peptides probed with Myo5 SH3 domain, normalized value

PSHYRNIPYNPATF was tested, and the “The normalized value in BLU units” value [1] was 174.8 BLU.
In the case of YYYYKHYPNMPPIN, the “The normalized value in BLU units (SPOT analysis, Myo5 SH3)” value [2] is reported as 287.9 BLU.
With KVNFRRIPTGPDSP the “The normalized value in BLU units” value [1] was 502.6 BLU.
With KAPYLVQPNVPEKH the “The normalized value in BLU units” value [3] was 130.6 BLU.
For QTVIKTHPRIPKSE, the “The normalized value in BLU units (SPOT analysis, Myo5 SH3)” value [2] was 186.2 BLU.
With LFKRLPVPAPPMDS the “The normalized value in BLU units (SPOT analysis, Myo5 SH3)” value [4] was 145.1 BLU.
For QIVNKPLPPLPVAG, the “The normalized value in BLU units (SPOT analysis, Myo5 SH3)” value [2] was 248.9 BLU.
With TTKHKAPPPPPPTA the “The normalized value in BLU units (SPOT analysis, Myo5 SH3)” value [2] was 1684.9 BLU.
With LPLPKLRPPRPTFA the “The normalized value in BLU units (SPOT analysis, Myo5 SH3)” value [2] was 77883.2 BLU.
HLDSFSPPFSPSTT was tested, and the “The normalized value in BLU units” value [3] was 120.7 BLU.
With PEVKHFCPSTPIML the “The normalized value in BLU units (SPOT analysis, Myo5 SH3)” value [4] was 93.7 BLU.
With RRKLRTVPGVPLIH the “The normalized value in BLU units (SPOT analysis, Myo5 SH3)” value [2] was 2011.1 BLU.
For PSSKKNKPNPPPGS, the “The normalized value in BLU units (SPOT analysis, Myo5 SH3)” value [2] was 106.9 BLU.
In the case of MAFIKILPNNPWPF, the “The normalized value in BLU units (SPOT analysis, Myo5 SH3)” value [2] is reported as 59.9 BLU.
In the case of LPTALLSPLRPSLC, the “The normalized value in BLU units” value [3] is reported as 115.0 BLU.
For IERVWNGPVEPSDE, the “The normalized value in BLU units (SPOT analysis, Myo5 SH3)” value [4] was 180.2 BLU.
In the case of ITDTKLFPGNPNLM, the “The normalized value in BLU units” value [3] is reported as 94.6 BLU.
LQQRRYYPIFPGSI was tested, and the “The normalized value in BLU units (SPOT analysis, Myo5 SH3)” value [2] was 278.7 BLU.
With TNSVKATPVPPTLA the “The normalized value in BLU units” value [1] was 168.0 BLU.
In the case of KPSLWEAPQNPPYS, the “The normalized value in BLU units” value [3] is reported as 152.4 BLU.
In the case of LNKTKLLPQSPILN, the “The normalized value in BLU units” value [1] is reported as 117.8 BLU.
In the case of RRHNRQHPPYPHSG, the “The normalized value in BLU units” value [1] is reported as 1287.6 BLU.
In the case of FPFYLSFPFCPSFP, the “The normalized value in BLU units (SPOT analysis, Myo5 SH3)” value [4] is reported as 759.9 BLU.
With TYGFRVRPDFPVFG the “The normalized value in BLU units” value [3] was 357.0 BLU.
In the case of EVENKLRPDLPVKN, the “The normalized value in BLU units” value [1] is reported as 40.7 BLU.
With ELEDFAFPDTPTIV the “The normalized value in BLU units” value [3] was 254.9 BLU.
With SLKNRDGPITPSTI the “The normalized value in BLU units” value [3] was 215.1 BLU.
QPQAYHLPGNPYST was tested, and the “The normalized value in BLU units (SPOT analysis, Myo5 SH3)” value [4] was 187.4 BLU.
ATKRKTIPVYPPVQ was tested, and the “The normalized value in BLU units” value [1] was 273.7 BLU.
For SAFPYVFPLPPWIP, the “The normalized value in BLU units” value [3] was 12966.5 BLU.
EFLIKEDPDLPPQG was tested, and the “The normalized value in BLU units” value [1] was 175.4 BLU.
With SASTMAAPVHPQQQ the “The normalized value in BLU units” value [3] was 164.3 BLU.
With DPSLYQIPEPPRGG the “The normalized value in BLU units (SPOT analysis, Myo5 SH3)” value [4] was 98.8 BLU.
For TAPIHSTPKPPPND, the “The normalized value in BLU units” value [3] was 77.7 BLU.
FANIKREPVHPEIR was tested, and the “The normalized value in BLU units” value [3] was 188.2 BLU.
In the case of NDMAKPLPTPPTAE, the “The normalized value in BLU units (SPOT analysis, Myo5 SH3)” value [2] is reported as 113.6 BLU.
KTGRKTFPFLPYQI was tested, and the “The normalized value in BLU units” value [1] was 466.0 BLU.
For VKRPRLNPFLPRDE, the “The normalized value in BLU units” value [1] was 1186.3 BLU.
With FLLKKMFPAPPLPT the “The normalized value in BLU units (SPOT analysis, Myo5 SH3)” value [2] was 23725.0 BLU.
KVLIKTLPVLPEAR was tested, and the “The normalized value in BLU units (SPOT analysis, Myo5 SH3)” value [2] was 236.7 BLU.
For INIAKAHPNFPIAL, the “The normalized value in BLU units” value [1] was 195.5 BLU.
LNFKRLLPRDPSEK was tested, and the “The normalized value in BLU units (SPOT analysis, Myo5 SH3)” value [2] was 553.7 BLU.
With GFDGYMQPIIPGKT the “The normalized value in BLU units (SPOT analysis, Myo5 SH3)” value [4] was 158.4 BLU.
In the case of IARSFTIPFLPKIP, the “The normalized value in BLU units (SPOT analysis, Myo5 SH3)” value [4] is reported as 204.5 BLU.
For WRWARDTPRAPGLH, the “The normalized value in BLU units (SPOT analysis, Myo5 SH3)” value [2] was 2104.5 BLU.
ELDIKQGPVRPFIV was tested, and the “The normalized value in BLU units (SPOT analysis, Myo5 SH3)” value [2] was 161.2 BLU.
In the case of YILPKTDPRSPYYI, the “The normalized value in BLU units (SPOT analysis, Myo5 SH3)” value [2] is reported as 188.5 BLU.
For RDDVKRTPFIPESV, the “The normalized value in BLU units” value [1] was 171.1 BLU.
In the case of LRISKPDPECPSKL, the “The normalized value in BLU units (SPOT analysis, Myo5 SH3)” value [2] is reported as 246.3 BLU.
With NVLLKAKPNDPAAT the “The normalized value in BLU units” value [1] was 155.5 BLU.
In the case of KQLMKNLPKIPLLN, the “The normalized value in BLU units” value [1] is reported as 580.1 BLU.
For LAYERPLPDLPSTI, the “The normalized value in BLU units (SPOT analysis, Myo5 SH3)” value [2] was 131.9 BLU.
GAGGLGCPALPYLA was tested, and the “The normalized value in BLU units (SPOT analysis, Myo5 SH3)” value [4] was 110.6 BLU.
In the case of NETKLKFPTLPEVP, the “The normalized value in BLU units” value [3] is reported as 254.7 BLU.
In the case of HFYEYVYPSLPFIE, the “The normalized value in BLU units (SPOT analysis, Myo5 SH3)” value [4] is reported as 152.0 BLU.
In the case of KLKSLNLPQLPPPK, the “The normalized value in BLU units” value [3] is reported as 674.9 BLU.
In the case of LSGTRLVPNCPLLW, the “The normalized value in BLU units” value [3] is reported as 431.8 BLU.
With EWEEKLTPAGPLCP the “The normalized value in BLU units” value [1] was 297.2 BLU.
HAVLLNPPVAPTAE was tested, and the “The normalized value in BLU units (SPOT analysis, Myo5 SH3)” value [4] was 227.5 BLU.
VEVIMHSPSDPEYA was tested, and the “The normalized value in BLU units (SPOT analysis, Myo5 SH3)” value [4] was 150.4 BLU.
For KTSTKAQPAEPQAE, the “The normalized value in BLU units” value [1] was 166.8 BLU.
For VWGPKPVPFQPMDV, the “The normalized value in BLU units” value [1] was 96.9 BLU.
With SLLAKYQPSLPLVE the “The normalized value in BLU units” value [1] was 162.4 BLU.
In the case of SLAVYNIPLFPDDP, the “The normalized value in BLU units (SPOT analysis, Myo5 SH3)” value [4] is reported as 91.7 BLU.
With HEREKALPPIPFTT the “The normalized value in BLU units (SPOT analysis, Myo5 SH3)” value [2] was 214.6 BLU.
With SPKKHVSPSRPPSV the “The normalized value in BLU units (SPOT analysis, Myo5 SH3)” value [4] was 1427.8 BLU.
SILRKSSPEEPFMS was tested, and the “The normalized value in BLU units (SPOT analysis, Myo5 SH3)” value [2] was 144.2 BLU.
With TLIEYMGPAPPKGS the “The normalized value in BLU units (SPOT analysis, Myo5 SH3)” value [4] was 133.3 BLU.
In the case of RLNSFAPPPNPYAT, the “The normalized value in BLU units” value [3] is reported as 273.6 BLU.
In the case of SMDSKRKPSPPSQR, the “The normalized value in BLU units (SPOT analysis, Myo5 SH3)” value [2] is reported as 509.7 BLU.
With CAKSKSRPNTPGSD the “The normalized value in BLU units” value [1] was 153.0 BLU.
